According to US20250318524A1, “ANTIMICROBIAL COATING COMPOSITION AND METHOD OF USE THEREOF” (priority 2024, published 2025):

Assay: Selection of antimicrobial agents: solubility in aqueous solution, stability, compatibility with the coating composition
Conditions: 20 wt. % in aqueous solution, during storage

N=C(NCCCCCCNC(=N)NC(=N)Nc1ccc(Cl)cc1)NC(=N)Nc1ccc(Cl)cc1.O=C(O)[C@H](O)[C@@H](O)[C@H](O)[C@H](O)CO.O=C(O)[C@H](O)[C@@H](O)[C@H](O)[C@H](O)CO [Chlorhexidine gluconate, chlorhexidine gluconate]
colour of solution over time: turned dark brown
